Data set [1] can be described thus: Antioxidant capacity (ABTS/metmyoglobin assay). Format: biochemical. Conditions: OD 750 nm, 15 minutes after hydrogen peroxide. On the procedure: Antioxidant capacity: The purpose of this study was to evaluate the overall antioxidant capacity of KLS-13022 for the ability to inhibit the oxidation of ABTS. (2,2′-Azino-di-[3-ethylbenzthiazoline sulphonate]) to ABTS.^+ by metmyoglobin. Ascorbic acid (Vitamin C) was used as positive antioxidant control in the assay. The testing involved the suppression of optical density (OD) at 750 nm to a degree, which is proportional to an effective oxidation inhibition. Neat solutions were prepared for materials formulated in HPLC-grade water (ascorbic acid) or 200-proof ethanol (KLS-13022). Serial dilutions were prepared for each material and mixed with metmyoglobin enzyme in assay buffer solution. All samples were compared to vehicle-only treated samples used as negative oxidation inhibition. Optical density changes at 750 nm were evaluated 15 minutes after addition of hydrogen peroxide to each sample. Average absorbance was calculated and plotted for each sample concentration. Effective antioxidant inhibition activity based on the change of absorbance of blank (vehicle-only) sample (no material added). […] The Antioxidant assay kit was obtained from Cayman Chemical Co. (Ann Arbor, Mich.). The assay consisted in the evaluation of the overall antioxidant capacity of test materials for the ability to inhibit the oxidation of ABTS. to ABTS.^+ by metmyoglobin. […]

The next data set concerns IL-8. The data set can be described thus: IL-8 release, nickel-induced allergy in human dermal microvascular endothelial cells (ELISA). Format: cell-based. Conditions: Homo sapiens, Endothelial cell; co-treatment with NiSO4, HDMECs; read-out: IC50 of IL-8 inhibition. On the procedure:
Dermal Microvascular endothelial cells of human origin were cultured in vitro using standard conditions (37° C., 95% v/v air, 5% v/v CO2). Human cells were selected as relevant to cell types within skin tissues for this development program. Cell culture methods are commonly used in non-clinical studies conducted on pharmaceutical products. […] Cells were cultured until the third and fourth passage and then acclimated for 24 hours before Nickel induction and dosing procedures. Cell treatment groups were identified using appropriate 96-well plates. The test and control articles were administered to medium containing 1 mM NiSO4 in triplicates. The negative control group received vehicle-only (0.1% v/v final) dose. A fixed 0.1 μL/well from 1000× stock dose volume was administered to 100 μL of media to each cell culture well on Day 2 and incubated for 6 hours at 37 degrees. These cell cultures were also utilized to determine the concentrations of test agent that were non-toxic after 24 hours of incubation.
Assay for Interleukin-8: Test material was applied in vitro for the ability to inhibit pro-inflammatory (IL-8) cytokine secretion by cultured HDMECs co-treated with Nickel (NiSO4). Clobetasol propionate was tested as positive control material for anti-inflammatory activity. The pro-inflammatory cytokine (IL-8) was quantified by enzyme-linked immunosorbent assay (ELISA) after inflammatory induction and incubation with test and control materials. Interleukin-8 levels in cell culture medium are markers of inflammation signaling by endothelial cells present in skin microvascular tissue in response to irritation. Interleukin-8 (IL-8) levels were assessed using BD Biosciences OptEIA™ Human IL-8 ELISA Set kit (Cat. No. 555244) and Reagent Set B (Cat. No. 550534) according to the manufacture's specifications. Absorbance was measured at 450 nm using plate reader and interleukin-8 levels were calculated from a standard curve.
Background: An ELISA detects its analyte on a solid surface through an enzyme-linked reagent.

Data set [2] concerns human 3D cornea-like EPIOCULAR
The data set can be described thus: Eye irritation, EPIOCULAR reconstructed cornea-like model, OECD 492 (MTT). The data set is classed as cell-based. Conditions: KLS-13022 up to 3% w/v in 60:40 ethanol:water; OECD 492. As to the method: Ocular irritancy: The purpose of this study was to evaluate any potential ocular irritation activity of KLS-13022 formulations compared to vehicle-only treated tissues in vitro on human 3D cornea-like EPIOCULAR by topical application according to OECD 492 protocol. Test formulations of KLS-13022 up to 3% w/v in 60:40 ethanol:water vehicle were prepared fresh before use. EPIOCULAR tissues were acclimated before treatments for 24 hours and later treated topically for 30 minutes with KLS-13022 (0.01, 0.1, 0.3 1, 3% w/v). Methyl acetate was used as positive eye irritant control. Tissue viability levels were measured by MTT reduction assay method after material treatments. The levels of tissue viability after each material treatment was compared to vehicle control group to determine any potential ocular irritation activity.
Average levels of tissue viability were calculated for each treatment group. According to OECD 492 protocol, predicted positive eye irritation activities were determined when obtaining <60% tissue viability. […] Primary cornea-like inserts were used from human origin and purchased from MatTek (Ashland, Mass.). […] Tissues were cultured with standard conditions (37° C., 95% v/v air, 5% v/v CO2) and acclimated for 18+3 hours before dosing procedures.

By EC50 is commonly meant the concentration at which the effect is half-maximal. A low value points to an effect from little substance. The compound `O=C1O[C@H]([C@@H](O)CO)C(O)=C1O` [ascorbic acid, reference compound] came in with an EC50 in data set [1] of 39.7 µM. Broadly, the IC50 is the point on the concentration scale where inhibition reaches its midpoint. As for `CCC(=O)O[C@]1(C(=O)CCl)[C@@H](C)C[C@H]2[C@@H]3CCC4=CC(=O)C=C[C@]4(C)[C@@]3(F)[C@@H](O)C[C@@]21C` [Clobetasol propionate, reference compound], the IC50 in the data set on IL-8 is around 500 nM. Turning to `COC(C)=O` [methyl acetate, Methyl acetate, reference compound], the ocular irritancy potential result in data set [2] was “strong eye irritant”.

The values are drawn from patent publication US20220409578A1, “FUNCTIONALIZED 1,3-BENZENE DIOLS AND THEIR METHOD OF USE FOR THE TREATMENT OF RADIATION DERMATITIS AND OTHER SKIN DISORDERS” (KANNALIFE SCIENCES, INC., priority 2019, published 2022).
